# How the values were obtained:
# [1] = tested on: antigen-primed CD8+ T cells; assay: Oxygen consumption and lactate production assay, share of ATP from oxidative phosphorylation and glycolysis
# [2] = tested on: P14 naive CD44loCD8+ T cells; assay: In vitro priming of CFSE-labeled P14 naive CD8+ T cells with gp33-pulsed DCs, IL-2 and titrated rapamycin: cell counts, CFSE division, live cell ratio; assay type: cell-based, mouse; conditions: day 8 after culture, 50 or 100 nM rapamycin
# [3] = tested on: antigen-primed CD8+ T cells; assay: Secondary culture in the absence of IL-2 (IL-2 withdrawal), live cell ratio, with or without oligomycin; assay type: cell-based, mouse
smiles,measurement,setting,value
CO[C@H]1C[C@@H]2CC[C@@H](C)[C@@](O)(O2)C(=O)C(=O)N2CCCC[C@H]2C(=O)O[C@H]([C@H](C)C[C@@H]2CC[C@@H](O)[C@H](OC)C2)CC(=O)[C@H](C)/C=C(\C)[C@@H](O)[C@@H](OC)C(=O)[C@H](C)C[C@H](C)/C=C/C=C/C=C/1C [rapamycin],oxygen consumption increase versus IL-2 CD8+ T cells,[1]; cells collected 6 days after culture,2 fold
same,ATP derived from oxidative phosphorylation metabolism,[1]; share of total ATP generation,more than 90%
same,dead cells,[2],less than 5%
same,viable cells after IL-2 withdrawal,[3]; by 24 hours after IL-2 withdrawal,Approximately 100%
same,cells remaining lived after IL-2 withdrawal,[3]; by 74 hours after withdrawal,more than 60%

# From patent US9057054B2, “Antigen-specific long-term memory T-cells” (THE REGENTS OF THE UNIVERSITY OF MICHIGAN, priority 2009, dated 2015)
